These results are taken from patent US7132546B2, “Aniline derivatives or salts thereof and cytokine production inhibitors containing the same” (Ishihara Sangyo Kaisha, Ltd., priority 2000, dated 2006).

In data set [1] the test system is interleukin 5 (IL-5) production. The data set is described as follows: Cytokine production inhibitory effect: IL-5 production by murine spleen cells treated with anti-mouse CD3 antibody and IL-2 (ELISA). The settings on record: test compound 100 ppm, anti-CD3 antibody + IL-2, 40 to 48 hours, read-out: IL-5 production inhibitory ratio (%). It is filed as cell-based, Balb/c mice. The method, then: (§1) Murine spleen cells were treated with anti-mouse CD3 antibody and IL-2 to induce cytokine production. The test compounds were added to the cytokine production system to evaluate their inhibitory effect. Namely, anti-mouse CD3 antibody adjusted to from 10 to 20 μg/ml with borate buffered physiological saline (pH 8.5) was pipetted into a 96-well cell culture plate in an amount of 50 μl/well and left to stand at 4° C. for 18 hours. The unreacted solution was removed, washing with Hank's buffer solution was carried out once, and IL-2 adjusted to 10 ng/ml with a RPMI liquid containing 10% fetal bovine serum (FCS) was pipetted in an amount of 50 μl/well. For the negative control group, a solution alone without anti-CD3 antibody nor IL-2 was applied. Then, the diluted solution of each of the test compounds (concentration: 100 ppm unless otherwise specified) was pipetted in an amount of 50 μl/well, and a cell suspension of 1×10^7 cells/ml, prepared from spleen of Balb/c mice (female, 7 to 10 week old) was pipetted thereinto in an amount of 100 μl/well. After cultivation in an incubator (37° C., 5% carbon dioxide gas) for from 40 to 48 hours, the culture supernatant was recovered to measure the cytokine production amount by ELISA method.
(§2) With respect to interleukin 5 (IL-5) as a typical Th2 type cytokine and interferon γ (IFN-γ) as a typical Th1 type cytokine, measurements were carried out by the following methods, respectively. Namely, quantitative determination of IL-5 was carried out by the following ELISA method. First, rat anti-mouse IL-5 antibody (Endogen Code No. MM-550C) as a primary antibody was diluted with carbonate buffer solution (pH 9.5) to 1 μg/ml, and spread in a 96 well plate (IWAKI, Code No. 3860-096) in an amount of 50 μl/well for coating at 4° C. overnight (16 to 24 hours). Then, the plate was subjected to blocking at 37° C. for 2 hours by phosphate buffered physiological saline containing 10% FCS (pH 7.2) (blocking buffer solution) (250 μl/well). The plate was washed with PBS (washing buffer) containing 0.05% Tween 20 (Nacalai Tesque, Code No. 281-51) four times, and a diluted liquid of the culture supernatant was spread in an amount of 50 μl/well, followed by incubation at room temperature for 1 hour. For preparation of a standard line, recombinant mouse IL-5 (R&D systems, Code No. 405-ML) was employed. The plate was washed with a washing buffer four times, and biotin-labeled rat anti-mouse IL-5 antibody (Pharmingen, Code No. 18062D) as a secondary antibody diluted to 0.5 μg/ml with a blocking buffer containing 0.05% Tween 20 was added thereto (50 μl/well), followed by incubation at room temperature for 1 hour. The plate was washed with a washing buffer four times, strept avidin-labeled peroxidase (ProZyme, Code No. CJ30H001) diluted 800 times with a blocking buffer containing 0.05% Tween 20 was added thereto (50 μl/well), followed by reaction at room temperature for 15 minutes. The plate was washed with a washing buffer four times, and a […] substrate solution (SIGMA, Code No. T-8665) was added thereto in an amount of 100 μl/well for color developing for from 10 to 20 minutes. A 1M sulfuric acid solution was added thereto in an amount of 100 μl/well to terminate the reaction, and absorption (wavelength 450 nm) was measured by means of micro plate reader (SPECTRA max, Wako Pure Chemicals Industries, Ltd.). Quantitative determination of IFN-γ was carried out in the same manner as the measurement of IL-5, employing rat anti-mouse IFN-γ antibody (Pharmingen, Code No. 18181D) and biotin labeled rat anti-mouse IFN-γ antibody (Pharmingen, Code NO. 18112D), as a primary antibody and a secondary antibody, respectively. For preparation of a standard line, recombinant mouse IFN-γ (GENZYME, Code No. 3485) was employed. The experiment was carried out in duplicate, and the average of the cytokine production amount was obtained. […]
For orientation: In an ELISA, binding on a coated surface is turned into a signal by an enzyme label.

In data set [2] the test system is interferon γ (IFN-γ) production. The data set can be described thus: Cytokine production inhibitory effect: IFN-γ production by murine spleen cells treated with anti-mouse CD3 antibody and IL-2 (ELISA). It is filed as cell-based, Balb/c mice. The settings on record: test compound 100 ppm, anti-CD3 antibody + IL-2, 40 to 48 hours, read-out: IFN-γ production inhibitory ratio (%). How it is done:
as §1, §2

`COC(=O)c1cc(C(=O)Nc2ccc(C34CC5CC(CC(C5)C3)C4)cc2C)cc([N+](=O)[O-])c1` [compound 47]: the melting point (as a rule, the temperature of the solid-liquid transition) was determined as 178 °C. The inhibition at 100 ppm in data set [1] stood at 89%. Further, the inhibition at 100 ppm in data set [2] is 95%.
On the same counts, the results for `O=[N+]([O-])c1ccc(Cl)c(S(=O)(=O)Nc2ccc(Oc3ccccc3)cc2)c1` [compound 49] are 148 °C, 100% and 100%.
On the same counts, the results for `Cc1cc(C23CC4CC(CC(C4)C2)C3)ccc1NC(=O)c1cccc(C#N)c1` [compound 50] are 83 °C, 95% and 98%.
On the same counts, the results for `O=C(c1ccccc1)c1ccc(NC(=O)c2cc([N+](=O)[O-])ccc2Cl)cc1` [compound 51] are 226 °C, 99% and 100%.
In turn, `COc1ccc([N+](=O)[O-])c(OC)c1C(=O)Nc1ccc(C23CC4CC(CC(C4)C2)C3)cc1C` [compound 52] yielded a melting point of 115 °C. In addition, the inhibition at 100 ppm in data set [1] is 75%. Moreover, the inhibition at 100 ppm in data set [2] was found to be 96%.
On the same counts, the results for `Cc1cc(C23CC4CC(CC(C4)C2)C3)ccc1NC(=O)c1c(Cl)ccc([N+](=O)[O-])c1Cl` [compound 53] are 224 °C, 94% and 93%.
In the same order, the values of `Cc1cc(C23CC4CC(CC(C4)C2)C3)ccc1NC(=O)c1ccc([N+](=O)[O-])cc1Cl` [compound 55] are 200 °C, 96% and 100%.
In the same order, the values of `Cc1cc(C23CC4CC(CC(C4)C2)C3)ccc1NC(=O)c1cc([N+](=O)[O-])ccc1O` [compound 56] are 131 °C, 100% and 100%.
Regarding `Cc1cc(C23CC4CC(CC(C4)C2)C3)ccc1NC(=O)c1cc(Cl)ccc1[N+](=O)[O-]` [compound 57], the melting point is 233 °C. Further, the inhibition at 100 ppm in data set [1] was 90%. Besides, the inhibition at 100 ppm in data set [2] was 98%.
On the same counts, the results for `Cc1cc(C23CC4CC(CC(C4)C2)C3)ccc1NC(=O)c1cccc(Cl)c1[N+](=O)[O-]` [compound 58] are 256 °C, 97% and 96%.
On the same counts, the results for `O=C(Nc1ccc(Sc2ncc(C(F)(F)F)cc2Cl)cc1)c1cc([N+](=O)[O-])ccc1Cl` [compound 59] are 174 °C, 100% and 100%.
On the same counts, the results for `Cc1cc(C23CC4CC(CC(C4)C2)C3)ccc1NC(=O)c1cccc([N+](=O)[O-])c1Cl` [compound 60] are 222 °C, 96% and 93%.
In turn, `Cc1cc(C23CC4CC(CC(C4)C2)C3)ccc1NC(=O)c1ccccc1` [compound 61] yielded a melting point of 198 °C. The inhibition at 100 ppm in data set [1] is 79%. Besides, in data set [2], the inhibition at 100 ppm is 89%.
On the same counts, the results for `Cc1cc(C23CC4CC(CC(C4)C2)C3)ccc1NC(=O)c1ccc(Cl)c([N+](=O)[O-])c1` [compound 62] are 111 °C, 100% and 100%.
With `O=C(Nc1ccc(Oc2ccccn2)cc1)c1cc([N+](=O)[O-])ccc1Cl` [compound 63], the melting point was 198 °C. Besides, the inhibition at 100 ppm in data set [1] is 100%. Also, the inhibition at 100 ppm in data set [2] was found to be 100%.
On to `O=C(Nc1ccc(Oc2ncc(C(F)(F)F)cc2Cl)cc1)c1cc([N+](=O)[O-])ccc1Cl` [compound 64], for which the melting point was found to be 203 °C. Also, in data set [1], the inhibition at 100 ppm was 98%. Further, the inhibition at 100 ppm in data set [2] was 99%.
In turn, `O=C(Nc1ccc(N2CCOCC2)cc1)c1cc([N+](=O)[O-])ccc1Cl` [compound 66] had a melting point of 195 °C. The inhibition at 100 ppm in data set [1] was 95%. In data set [2], the inhibition at 100 ppm worked out at 91%.
As for `O=C(Nc1ccc(/N=N/c2ccccc2)cc1)c1cc([N+](=O)[O-])ccc1Cl` [compound 67], the melting point is 187 °C. The inhibition at 100 ppm in data set [1] came to 99%. In addition, the inhibition at 100 ppm in data set [2] came to 100%.
As to `CSc1ccc(Cl)c(C(=O)Nc2ccc(C34CC5CC(CC(C5)C3)C4)cc2C)c1` [compound 68], the melting point came out at 65 °C. The inhibition at 100 ppm in data set [1] was found to be 92%. In addition, in data set [2], the inhibition at 100 ppm was 99%.
On the same counts, the results for `O=C(Nc1ccc(Sc2ccccc2)cc1)c1cc([N+](=O)[O-])ccc1Cl` [compound 69] are 180 to 183 °C, 100% and 100%.
`Cc1cc(C23CC4CC(CC(C4)C2)C3)ccc1NC(=O)c1cc(C(F)(F)F)ccc1Cl` [compound 70] showed a melting point of 69 °C. Besides, in data set [1], the inhibition at 100 ppm was determined as 98%. Also, the inhibition at 100 ppm in data set [2] amounted to 99%.
In the same order, the values of `Cc1ccc(NC(=O)c2ccc([N+](=O)[O-])cc2Cl)c(C)c1` [compound 73] are 181 to 183 °C, 64% and 28%.
On the same counts, the results for `Cc1cc(C23CC4CC(CC(C4)C2)C3)ccc1NC(=O)c1ccc([N+](=O)[O-])cc1` [compound 74] are 289 to 290 °C, 43% and 10%.
Consider `Cc1cc(C23CC4CC(CC(C4)C2)C3)ccc1NC(=O)c1cc(S(C)(=O)=O)ccc1Cl` [compound 75], for which the melting point fell in the range of 96 to 100 °C. Further, the inhibition at 100 ppm in data set [1] was 100%. In addition, the inhibition at 100 ppm in data set [2] was 100%.
As for `Cc1cc(C23CC4CC(CC(C4)C2)C3)ccc1NC(=O)c1cc(C#N)ccc1Cl` [compound 76], the melting point is 184 to 187 °C. The inhibition at 100 ppm in data set [1] was determined as 96%. Also, the inhibition at 100 ppm in data set [2] turned out to be 96%.
As for `O=C(Nc1ccc(OCc2ccccc2)cc1)c1cc([N+](=O)[O-])ccc1Cl` [compound 77], the melting point lay within 176 to 178 °C. In addition, the inhibition at 100 ppm in data set [1] was found to be 74%. Also, the inhibition at 100 ppm in data set [2] amounted to 50%.
On to `O=C(Nc1ccc(SCc2ccccc2)cc1)c1cc([N+](=O)[O-])ccc1Cl` [compound 78], for which the melting point lay in the range of 156 to 157 °C. In data set [1], the inhibition at 100 ppm is 78%. Besides, in data set [2], the inhibition at 100 ppm was determined as 91%.
In turn, `O=C(Nc1ccc(CSc2ccccc2)cc1)c1cc([N+](=O)[O-])ccc1Cl` [compound 79] had a melting point of 176 to 180 °C. Also, the inhibition at 100 ppm in data set [1] came out at 62%. The inhibition at 100 ppm in data set [2] was 90%.
In the same order, the values of `O=[N+]([O-])c1ccc(Cl)c(S(=O)(=O)Nc2ccc(Oc3ncc(C(F)(F)F)cc3Cl)cc2)c1` [compound 80] are 171 °C, 100% and 100%.
In the same order, the values of `O=C(Nc1ccc(CSc2ncc(C(F)(F)F)cc2Cl)cc1)c1cc([N+](=O)[O-])ccc1Cl` [compound 82] are 207 to 208 °C, 90% and 99%.
